From ChEMBL document CHEMBL5442334, “ASAP - In vitro safety pharmacology profile” (2024)

Tests used:
Settings in all cases: Test compound concentration 10.0 uM
[1] = molecular target: T1, Glucocorticoid receptor (Homo sapiens) (UniProt P04150); assay: SafetyScreen: GR Human Glucocorticoid NHR Binding Agonist Radioligand LeadHunter Assay, catalogue number: 469
T1 sequence (whole entry): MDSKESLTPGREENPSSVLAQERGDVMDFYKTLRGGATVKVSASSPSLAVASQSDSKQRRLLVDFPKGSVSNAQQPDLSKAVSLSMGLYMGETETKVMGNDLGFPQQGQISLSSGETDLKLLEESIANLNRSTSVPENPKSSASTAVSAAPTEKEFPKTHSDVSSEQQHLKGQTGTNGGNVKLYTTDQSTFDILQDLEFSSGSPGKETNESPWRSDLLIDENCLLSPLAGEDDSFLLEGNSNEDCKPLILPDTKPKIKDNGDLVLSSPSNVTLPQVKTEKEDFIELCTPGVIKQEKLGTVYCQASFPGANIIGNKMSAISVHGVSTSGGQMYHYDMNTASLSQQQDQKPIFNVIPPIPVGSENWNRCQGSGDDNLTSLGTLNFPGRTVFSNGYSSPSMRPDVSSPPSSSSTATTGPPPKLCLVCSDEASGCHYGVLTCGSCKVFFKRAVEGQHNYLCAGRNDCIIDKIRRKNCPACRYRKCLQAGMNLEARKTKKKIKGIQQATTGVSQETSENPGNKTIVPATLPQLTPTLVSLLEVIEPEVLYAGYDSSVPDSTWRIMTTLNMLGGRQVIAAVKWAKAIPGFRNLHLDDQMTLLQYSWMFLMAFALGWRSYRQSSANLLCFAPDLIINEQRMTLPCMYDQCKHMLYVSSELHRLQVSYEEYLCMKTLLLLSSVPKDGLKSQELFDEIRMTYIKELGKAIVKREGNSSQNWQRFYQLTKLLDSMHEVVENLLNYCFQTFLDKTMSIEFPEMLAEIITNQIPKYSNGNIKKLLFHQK

[2] = molecular target: 5-hydroxytryptamine receptor 2B (Homo sapiens) (UniProt P41595); assay: SafetyScreen: 5-HT2B Human Serotonin GPCR [125I](±)DOI Binding Agonist Radioligand LeadHunter Assay, catalogue number: 1333
Sequence of 5-hydroxytryptamine receptor 2B (Homo sapiens) (P41595 whole entry): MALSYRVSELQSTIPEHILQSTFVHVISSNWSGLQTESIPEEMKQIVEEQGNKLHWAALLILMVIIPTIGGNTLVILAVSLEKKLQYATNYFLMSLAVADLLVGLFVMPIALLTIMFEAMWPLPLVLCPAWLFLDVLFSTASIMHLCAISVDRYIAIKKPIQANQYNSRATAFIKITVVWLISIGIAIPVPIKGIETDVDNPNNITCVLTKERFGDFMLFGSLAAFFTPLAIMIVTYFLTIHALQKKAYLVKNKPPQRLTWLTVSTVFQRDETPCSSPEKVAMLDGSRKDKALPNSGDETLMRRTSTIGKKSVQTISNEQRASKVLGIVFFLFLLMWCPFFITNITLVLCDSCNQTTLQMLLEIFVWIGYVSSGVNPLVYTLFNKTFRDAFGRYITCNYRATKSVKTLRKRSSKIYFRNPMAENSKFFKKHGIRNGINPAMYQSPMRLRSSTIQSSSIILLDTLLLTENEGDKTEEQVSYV

[3] = molecular target: cGMP-inhibited 3',5'-cyclic phosphodiesterase 3A (Homo sapiens) (UniProt Q14432); assay: SafetyScreen: PDE3A Human Phosphodiesterase Enzymatic LeadHunter Assay, catalogue number: 4072; assay type: functional
Sequence of cGMP-inhibited 3',5'-cyclic phosphodiesterase 3A (Homo sapiens) (Q14432 whole entry): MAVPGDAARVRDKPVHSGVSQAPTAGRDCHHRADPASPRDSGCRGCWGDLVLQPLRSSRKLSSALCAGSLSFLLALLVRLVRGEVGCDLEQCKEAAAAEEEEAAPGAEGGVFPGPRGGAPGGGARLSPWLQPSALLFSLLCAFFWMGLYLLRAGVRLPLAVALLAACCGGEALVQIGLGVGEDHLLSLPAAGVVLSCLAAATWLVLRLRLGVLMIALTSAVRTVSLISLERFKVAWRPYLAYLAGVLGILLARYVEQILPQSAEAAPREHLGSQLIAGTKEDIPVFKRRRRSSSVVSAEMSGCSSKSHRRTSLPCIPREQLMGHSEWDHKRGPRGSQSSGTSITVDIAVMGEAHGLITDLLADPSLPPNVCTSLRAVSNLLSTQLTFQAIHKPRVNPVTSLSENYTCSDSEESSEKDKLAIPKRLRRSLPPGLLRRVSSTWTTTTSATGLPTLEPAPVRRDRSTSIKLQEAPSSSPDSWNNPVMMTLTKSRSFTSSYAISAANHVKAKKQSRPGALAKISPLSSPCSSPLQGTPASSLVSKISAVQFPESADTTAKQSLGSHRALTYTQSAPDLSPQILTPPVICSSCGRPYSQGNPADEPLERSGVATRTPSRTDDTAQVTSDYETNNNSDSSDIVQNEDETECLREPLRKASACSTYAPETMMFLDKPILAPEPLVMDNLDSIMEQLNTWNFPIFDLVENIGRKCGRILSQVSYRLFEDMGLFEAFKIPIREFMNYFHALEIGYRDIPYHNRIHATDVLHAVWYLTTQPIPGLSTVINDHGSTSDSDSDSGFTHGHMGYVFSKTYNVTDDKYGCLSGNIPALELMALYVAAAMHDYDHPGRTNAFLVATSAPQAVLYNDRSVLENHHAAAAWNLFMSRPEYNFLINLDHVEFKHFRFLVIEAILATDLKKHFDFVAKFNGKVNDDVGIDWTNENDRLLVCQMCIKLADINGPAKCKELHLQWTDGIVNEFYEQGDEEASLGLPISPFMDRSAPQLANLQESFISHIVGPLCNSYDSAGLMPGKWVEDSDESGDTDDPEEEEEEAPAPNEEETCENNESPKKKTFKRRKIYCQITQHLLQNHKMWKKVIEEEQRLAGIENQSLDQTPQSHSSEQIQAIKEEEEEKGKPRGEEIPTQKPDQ

[4] = molecular target: D(1A) dopamine receptor (Homo sapiens) (UniProt P21728); assay: SafetyScreen: D1 Human Dopamine GPCR Binding Antagonist Radioligand LeadHunter Assay, catalogue number: 44
Sequence of D(1A) dopamine receptor (Homo sapiens) (P21728 whole entry): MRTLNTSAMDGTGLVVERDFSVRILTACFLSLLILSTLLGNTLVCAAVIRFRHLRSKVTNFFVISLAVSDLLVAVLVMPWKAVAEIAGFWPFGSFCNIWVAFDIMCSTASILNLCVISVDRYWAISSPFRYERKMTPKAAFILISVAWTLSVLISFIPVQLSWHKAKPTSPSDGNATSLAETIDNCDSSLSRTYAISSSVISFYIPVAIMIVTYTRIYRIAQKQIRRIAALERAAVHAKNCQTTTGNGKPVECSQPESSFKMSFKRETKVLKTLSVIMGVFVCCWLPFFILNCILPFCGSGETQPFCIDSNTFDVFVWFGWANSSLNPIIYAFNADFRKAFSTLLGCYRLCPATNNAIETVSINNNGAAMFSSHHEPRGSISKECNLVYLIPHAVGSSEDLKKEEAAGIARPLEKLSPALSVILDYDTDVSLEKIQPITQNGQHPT

[5] = molecular target: Neuronal acetylcholine receptor; alpha4/beta2 (Homo sapiens) (UniProt P17787+P43681); assay: SafetyScreen: nAChR (alpha4/beta2) Human Ion Channel Binding Agonist Radioligand LeadHunter Assay, catalogue number: 3029; assay type: protein-complex assay
[6] = molecular target: Tyrosine-protein kinase Lck (Homo sapiens) (UniProt P06239); assay: SafetyScreen: Lck Human TK Kinase Enzymatic TR-FRET [Km ATP] LeadHunter Assay, catalogue number: 2906; assay type: functional
Sequence of Tyrosine-protein kinase Lck (Homo sapiens) (P06239 2-509 limits assumed): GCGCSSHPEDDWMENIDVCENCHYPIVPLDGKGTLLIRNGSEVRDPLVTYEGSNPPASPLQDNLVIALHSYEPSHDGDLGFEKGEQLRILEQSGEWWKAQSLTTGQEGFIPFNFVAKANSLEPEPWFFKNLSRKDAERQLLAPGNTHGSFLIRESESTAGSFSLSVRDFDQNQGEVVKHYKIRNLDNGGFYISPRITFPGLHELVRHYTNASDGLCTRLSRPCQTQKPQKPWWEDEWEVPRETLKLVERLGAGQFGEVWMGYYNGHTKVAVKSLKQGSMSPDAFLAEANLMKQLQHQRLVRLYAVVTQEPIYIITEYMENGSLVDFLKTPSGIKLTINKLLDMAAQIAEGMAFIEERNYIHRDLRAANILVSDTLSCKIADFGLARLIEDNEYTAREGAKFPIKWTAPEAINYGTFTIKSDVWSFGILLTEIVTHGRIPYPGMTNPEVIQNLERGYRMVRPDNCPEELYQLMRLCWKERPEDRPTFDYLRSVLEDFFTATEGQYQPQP

[7] = molecular target: 5-hydroxytryptamine receptor 2A (Homo sapiens) (UniProt P28223); assay: SafetyScreen: 5-HT2A Human Serotonin GPCR Binding Agonist Radioligand LeadHunter Assay, catalogue number: 471
Sequence of 5-hydroxytryptamine receptor 2A (Homo sapiens) (P28223 whole entry): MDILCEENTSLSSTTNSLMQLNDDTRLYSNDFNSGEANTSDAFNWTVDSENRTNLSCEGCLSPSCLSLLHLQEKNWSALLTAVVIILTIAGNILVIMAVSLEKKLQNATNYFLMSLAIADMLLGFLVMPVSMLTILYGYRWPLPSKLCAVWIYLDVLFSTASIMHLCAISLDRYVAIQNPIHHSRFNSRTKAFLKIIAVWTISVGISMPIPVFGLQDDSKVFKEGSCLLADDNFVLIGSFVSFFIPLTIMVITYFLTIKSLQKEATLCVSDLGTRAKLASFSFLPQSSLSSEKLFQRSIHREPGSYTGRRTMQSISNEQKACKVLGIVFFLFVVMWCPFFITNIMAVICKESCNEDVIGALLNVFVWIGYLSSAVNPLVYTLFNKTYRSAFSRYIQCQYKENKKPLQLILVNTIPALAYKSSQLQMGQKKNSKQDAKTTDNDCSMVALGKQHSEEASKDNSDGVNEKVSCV

[8] = molecular target: Glutamate NMDA receptor (Rattus norvegicus) (UniProt P35439+Q00959+Q00960+Q00961+Q62645+Q8VHN2+Q9R1M7); assay: SafetyScreen: Glutamate (NMDA, Non-Selective) Rat Ion Channel [3H] CGP-39653 Binding LeadHunter Assay, catalogue number: 66; assay type: protein-complex assay
[9] = molecular target: T2, Muscarinic acetylcholine receptor M1 (Homo sapiens) (UniProt P11229); assay: SafetyScreen: M1 Human Acetylcholine (Muscarinic) GPCR Binding Antagonist Radioligand LeadHunter Assay, catalogue number: 91
T2 sequence (whole entry): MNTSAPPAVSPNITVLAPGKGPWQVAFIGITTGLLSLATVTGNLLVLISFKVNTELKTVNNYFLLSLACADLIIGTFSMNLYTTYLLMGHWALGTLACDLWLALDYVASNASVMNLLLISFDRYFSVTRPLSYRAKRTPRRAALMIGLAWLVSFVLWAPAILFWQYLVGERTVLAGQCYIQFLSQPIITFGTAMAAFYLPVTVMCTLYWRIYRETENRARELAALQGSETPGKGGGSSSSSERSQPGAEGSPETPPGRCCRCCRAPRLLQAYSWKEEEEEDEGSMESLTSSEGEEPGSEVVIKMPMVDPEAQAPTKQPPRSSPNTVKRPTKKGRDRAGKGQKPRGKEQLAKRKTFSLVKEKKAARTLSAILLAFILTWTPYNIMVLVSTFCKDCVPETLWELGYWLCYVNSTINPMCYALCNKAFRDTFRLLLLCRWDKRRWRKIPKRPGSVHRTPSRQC

[10] = molecular target: Beta-2 adrenergic receptor (Homo sapiens) (UniProt P07550); assay: SafetyScreen: beta2 Human Adrenoceptor GPCR Binding Antagonist Radioligand LeadHunter Assay, catalogue number: 20
Sequence of Beta-2 adrenergic receptor (Homo sapiens) (P07550 whole entry, looked up): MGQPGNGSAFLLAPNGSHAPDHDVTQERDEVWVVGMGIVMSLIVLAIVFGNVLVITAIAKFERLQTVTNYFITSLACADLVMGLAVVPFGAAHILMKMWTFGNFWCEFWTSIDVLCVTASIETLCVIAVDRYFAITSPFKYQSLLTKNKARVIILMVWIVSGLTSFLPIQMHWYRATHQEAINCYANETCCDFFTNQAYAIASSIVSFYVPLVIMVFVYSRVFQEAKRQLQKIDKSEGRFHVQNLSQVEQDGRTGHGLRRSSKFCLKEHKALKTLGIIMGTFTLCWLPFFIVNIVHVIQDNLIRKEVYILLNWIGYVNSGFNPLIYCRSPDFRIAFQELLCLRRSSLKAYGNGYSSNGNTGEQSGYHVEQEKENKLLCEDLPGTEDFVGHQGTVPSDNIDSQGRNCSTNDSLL

[11] = molecular target: Acetylcholinesterase (Homo sapiens) (UniProt P22303); assay: SafetyScreen: Acetylcholinesterase Human Enzymatic LeadHunter Assay, catalogue number: 363; assay type: functional
Sequence of Acetylcholinesterase (Homo sapiens) (P22303 whole entry): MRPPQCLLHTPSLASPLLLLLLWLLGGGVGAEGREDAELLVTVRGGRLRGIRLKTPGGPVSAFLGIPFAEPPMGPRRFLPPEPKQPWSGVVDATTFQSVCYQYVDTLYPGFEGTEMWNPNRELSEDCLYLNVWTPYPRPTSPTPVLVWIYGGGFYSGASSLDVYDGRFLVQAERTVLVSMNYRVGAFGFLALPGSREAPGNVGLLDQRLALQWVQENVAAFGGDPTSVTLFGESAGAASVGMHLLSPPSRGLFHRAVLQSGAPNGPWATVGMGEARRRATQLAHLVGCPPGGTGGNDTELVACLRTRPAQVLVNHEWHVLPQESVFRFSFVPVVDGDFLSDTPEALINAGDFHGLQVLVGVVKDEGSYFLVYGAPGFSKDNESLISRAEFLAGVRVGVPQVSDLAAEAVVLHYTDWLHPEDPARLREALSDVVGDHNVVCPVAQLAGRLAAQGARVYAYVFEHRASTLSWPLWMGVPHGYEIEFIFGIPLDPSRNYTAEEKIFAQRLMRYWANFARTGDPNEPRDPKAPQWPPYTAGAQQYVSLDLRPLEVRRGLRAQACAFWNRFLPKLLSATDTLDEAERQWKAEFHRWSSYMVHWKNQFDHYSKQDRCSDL

[12] = molecular target: Sodium-dependent noradrenaline transporter (Homo sapiens) (UniProt P23975); assay: SafetyScreen: NET Human Norepinephrine Transporter Binding Antagonist Radioligand LeadHunter Assay, catalogue number: 355
[13] = molecular target: T3, Alpha-1A adrenergic receptor (Homo sapiens) (UniProt P35348); assay: SafetyScreen: alpha1A Human Adrenoceptor GPCR Binding Antagonist Radioligand LeadHunter Assay, catalogue number: 2338
T3 sequence (whole entry): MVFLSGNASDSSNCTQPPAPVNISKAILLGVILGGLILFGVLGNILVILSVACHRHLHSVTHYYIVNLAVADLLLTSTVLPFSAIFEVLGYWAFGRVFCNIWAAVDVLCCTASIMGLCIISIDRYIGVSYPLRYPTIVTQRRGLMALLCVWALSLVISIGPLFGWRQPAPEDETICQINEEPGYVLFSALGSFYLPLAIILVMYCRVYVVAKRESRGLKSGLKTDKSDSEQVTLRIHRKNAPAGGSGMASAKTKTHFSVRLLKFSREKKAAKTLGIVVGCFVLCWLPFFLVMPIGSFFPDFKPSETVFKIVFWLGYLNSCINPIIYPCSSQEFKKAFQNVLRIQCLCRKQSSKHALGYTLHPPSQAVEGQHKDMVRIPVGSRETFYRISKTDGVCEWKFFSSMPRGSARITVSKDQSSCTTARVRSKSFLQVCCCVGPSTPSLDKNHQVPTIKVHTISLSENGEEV

[14] = molecular target: Vasopressin V1a receptor (Homo sapiens) (UniProt P37288); assay: SafetyScreen: V1A Human Vasopressin / Oxytocin GPCR Binding Agonist Radioligand LeadHunter Assay, catalogue number: 159
Sequence of Vasopressin V1a receptor (Homo sapiens) (P37288 whole entry, looked up): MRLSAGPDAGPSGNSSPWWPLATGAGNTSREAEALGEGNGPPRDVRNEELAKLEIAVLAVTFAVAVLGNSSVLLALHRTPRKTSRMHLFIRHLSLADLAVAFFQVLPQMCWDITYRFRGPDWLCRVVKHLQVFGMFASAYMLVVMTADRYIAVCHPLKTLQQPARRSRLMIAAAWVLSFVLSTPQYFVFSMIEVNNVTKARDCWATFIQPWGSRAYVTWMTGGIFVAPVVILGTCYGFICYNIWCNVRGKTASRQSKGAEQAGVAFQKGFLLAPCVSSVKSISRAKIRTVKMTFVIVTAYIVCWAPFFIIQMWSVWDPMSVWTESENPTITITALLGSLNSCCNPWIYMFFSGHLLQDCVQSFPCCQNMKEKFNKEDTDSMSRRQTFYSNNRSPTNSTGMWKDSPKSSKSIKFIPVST

[15] = molecular target: Adenosine receptor A2a (Homo sapiens) (UniProt P29274); assay: SafetyScreen: A2A Human Adenosine GPCR Binding Agonist Radioligand LeadHunter Assay, catalogue number: 4
Sequence of Adenosine receptor A2a (Homo sapiens) (P29274 whole entry): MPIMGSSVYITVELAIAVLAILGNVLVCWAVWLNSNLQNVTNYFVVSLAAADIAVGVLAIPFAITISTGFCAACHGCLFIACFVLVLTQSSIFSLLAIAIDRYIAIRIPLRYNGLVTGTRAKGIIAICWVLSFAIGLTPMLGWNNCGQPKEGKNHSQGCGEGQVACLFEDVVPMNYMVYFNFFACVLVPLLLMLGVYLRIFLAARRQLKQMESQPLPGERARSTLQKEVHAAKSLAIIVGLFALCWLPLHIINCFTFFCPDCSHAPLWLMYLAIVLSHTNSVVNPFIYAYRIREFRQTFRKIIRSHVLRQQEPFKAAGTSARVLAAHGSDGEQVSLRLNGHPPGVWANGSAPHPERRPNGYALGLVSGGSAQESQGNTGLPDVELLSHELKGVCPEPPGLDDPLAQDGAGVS

Row | SMILES | inhibition [1] [%] | inhibition [2] [%] | inhibition [3] [%] | inhibition [4] [%] | inhibition [5] [%] | inhibition [6] [%] | inhibition [7] [%] | inhibition [8] [%] | inhibition [9] [%] | inhibition [10] [%] | inhibition [11] [%] | inhibition [12] [%] | inhibition [13] [%] | inhibition [14] [%] | inhibition [15] [%]
1 | C[C@H](C(=O)O)[C@@H](NC(=O)c1ncnc2[nH]ccc12)c1ccc(Br)cc1 | 3 | -4 | 52 | -8 | 0 | 4 | 1 | 4 | -1 | -8 | 12 | -6 | -8 | 62 | 
2 | COc1ccc([C@H](Cc2nnn[nH]2)NC(=O)c2ncnc3[nH]ccc23)cc1 | 1 |  | 62 |  | 4 | 4 | -4 | 9 | -4 | -6 | 11 | -5 | -7 | 5 | 
3 | CC(C)[C@@H](Nc1ncnc2[nH]c(-c3cnn(C)c3C#N)cc12)c1ccc2c(n1)OCCO2 | 22 | 40 | 37 | 10 | -2 | 34 | 14 | 1 | 8 | 3 | 22 | 4 | 11 | 20 | 69
4 | CNC(=O)Cn1cc(-c2cc3c(N[C@@H](c4ccc5c(c4)S(=O)(=O)CCC5)C(C)C)ncnc3[nH]2)cn1 | 5 | 25 | -9 | 1 |  | 30 | 12 | -1 | 9 | 0 | 13 | -7 | 11 | 15 | 23
5 | CC(C)[C@H](Nc1ncnc2[nH]ccc12)c1ccc2c(c1)S(=O)(=O)CCC2 | 10 | 54 | 29 | -4 | 1 | 10 | 12 | -1 | 19 | -1 | 12 | -3 | -2 | 6 | 11
6 | Cn1ncc(-c2cc3c(N[C@@H](c4ccc5c(n4)OCCO5)C(C)(C)C)ncnc3[nH]2)c1C#N | 28 | -5 | 37 | 9 | -5 | 47 | -2 | 11 | 13 | 4 | 14 | 27 | 54 | 57 | 52
7 | CC(C)[C@@H](Nc1ncnc2[nH]c(C(=O)N[C@@H]3CCN(C)C3)cc12)c1ccc2c(c1)S(=O)(=O)CCC2 | 11 | 6 | 4 | -3 | -2 | 15 | 1 | 1 | 17 | -3 | 28 | -1 | 38 | 6 | -4
8 | CNCc1cc(-c2cc3c(N[C@@H](c4ccc5c(c4)S(=O)(=O)CCC5)C(C)C)ncnc3[nH]2)co1 | 21 |  | -5 | 14 | 0 | 68 | 29 | -1 | 47 | 6 | 10 | 39 | 50 | 13 | 21
9 | Cc1nn(C)cc1-c1cc2c(N[C@H](c3ccc4c(c3)S(=O)(=O)CCC4)C(C)C)ncnc2[nH]1 | 7 | 43 | 46 | 3 | -2 | 33 | 51 | -2 | 11 | -7 | 13 | -2 | 8 | 14 | 13
10 | CC(C)[C@H](Nc1ncnc2[nH]c(-c3cnn(C)c3C#N)cc12)c1ccc2c(n1)OCCO2 | 11 | 18 | 37 | 27 | 2 | 20 | 15 | 2 | 7 | 3 | 15 | 9 | 34 | 27 | 84
